Data from paper PMC6089189, “Targeting inhibitors of apoptosis proteins suppresses medulloblastoma cell proliferation via G2/M phase arrest and attenuated neddylation of p21” (Cancer Medicine, 2018).
Residues, ends and D or L forms follow the SMILES beside them. *: point of attachment. Cbz = O=C(OCc1ccccc1)*

Key:
Assay type in all cases: cell-based
[1] = test system: MB cells (DAOY and D283MED); assay: MTT cell viability / proliferation, stated for MB cells together; details: 30 μmol/L, 72 h
Method: (§1) This assay was carried out using thiazolyl blue tetrazolium bromide (MTT; Sigma), as described in previous studies.12 Cell viability was calculated using the formula: (OD of experimental well/OD of control well) × 100%.
(§2) Figure 1 High Levels of IAPs in MB Cells Correspond to Sensitivity to IAP Inhibitors LBW242 or LCL161. A, The levels of IAPs and p21 in MB cell lines DAOY, D283MED and normal controls HA‐h and BJ were determined by immunoblotting. Their levels in MB cells were quantitated, normalized by GAPDH, presented in a bar graph, and compared to those in HA‐h cells. B, DAOY, D283MED, HA‐h, and BJ cell lines were treated with LBW242 or LCL161 at different concentrations (0, 5, 10, 20, and 40 μmol/L) and DMSO (control) for 72 h. Cell viability was determined by MTT assay. Data are represented as mean ± SEM of three independent experiments (*P < 0.05, **P < 0.01, and ***P < 0.005)

DAOY cells [2] = assay: Apoptosis by Annexin V/PI and FACS, DAOY; details: Annexin V‐positive population by FACS
[3] = test system: BJ cells (normal fibroblast cell line); assay: MTT cell viability assay, BJ; details: for effect on BJ cell proliferation: 30 μmol/L, 72 h; for IC50: BJ, MTT
Method: as §1, §2

[4] = test system: CDK1, CDK2, cyclin A and cyclin B1; assay: Immunoblotting of G2/M transition‐related proteins in MB cells; details: 72 h
Description: (§3) Antibody against XIAP, cIAP2, p21, or p53 was purchased from Cell Signaling Technology (Danvers, MA, USA); antibody for detection of cIAP1, cIAP1/2, p27, p16, GAPDH, cyclin A, or cyclin B1 was purchased from Santa Cruz Biotechnology (Dallas, TX, USA); antibodies against CDK1 and CDK2 were bought from Millipore (Burlington, MA, USA) and Upstate Biotechnology, respectively. The blotting membrane was developed using enhanced chemiluminescence (ECL) substrate (Millipore), and analyzed by densitometry and Image J (National Institutes of Health, USA).
(§4) A, MB cells were treated with DMSO (control), vincristine (1.25 nmol/L for DAOY and 2.5 nmol/L for D283MED), or cisplatin (0.31 μmol/L for DAOY and 0.625 μmol/L for D283MED), or in combination with LCL161 (10 μmol/L) or LBW242 (10 μmol/L) for 72 h. Thereafter, cells were harvested and their DNA contents were analyzed by FACS. B, The proportion of each cell cycle compartment was shown in bar graphs.

D283MED cells [5] = assay: Apoptosis by Annexin V/PI and FACS, D283MED; details: Annexin V‐positive population by FACS
[6] = test system: HA‐h cells (human astrocyte‐hippocampal); assay: MTT cell viability assay, HA‐h; details: for effect on HA‐h cell proliferation: 30 μmol/L, 72 h; for IC50: HA‐h, MTT
Method: as §1, §2

D283MED cells [7] = assay: MTT cell viability assay, D283MED
Method: as §1, §2

D283MED cells [8] = assay: Cell cycle analysis (PI, FACS), D283MED; details: siRNA with DMSO control, vincristine or cisplatin, Fig. S2
Method: (§5) MB cells were harvested following treatment with reagents. Cells were fixed with 70% ethanol, and then stored at −20°C overnight. Subsequent to equilibrating to room temperature, the cells were permeabilized with PBS containing 0.5% Triton X‐100 and 0.05% RNAse followed by staining with 50 μg/mL propidium iodide (PI; Sigma) at 4°C for 30 minutes. Finally, DNA content was detected by fluorescence‐activated cell sorting (FACS; Beckman Coulter Epics XL, Brea, CA, USA), and data were analyzed by EXPO32 ADC software (Beckman‐Coulter, USA).
as §4

DAOY cells [9] = assay: Cell cycle analysis (PI, FACS), DAOY; details: siRNA with DMSO control, vincristine or cisplatin, Fig. S2
Method: as §5, §4

DAOY cells [10] = assay: MTT cell viability assay, DAOY
Method: as §1, §2

p21 = assay: Immunoblotting of p21 protein in MB cells; details: DAOY and D283MED
Description: as §3
(§6) Figure 4 IAPs Inhibition Increases the Protein Levels of p21, which are Governed by Proteasomal Degradation. A, DAOY and D283MED cells were incubated with LBW242 (10 μmol/L) for 0‐360 min. Total cell lysates were collected at different time points and then subjected to immunoblotting. B, The protein levels of cIAP1 and p21 were quantitated, normalized by the levels of GAPDH, and shown in the curve graphs. C, MB cells were transfected with siRNAs against cIAP1 or cIAP2, and nontargeting (NT) siRNA, and protein levels of cIAP1, cIAP2, and p21 were detected by immunoblotting. D, MB cells were treated with MG‐132, CHX, and MNL4924 to verify p21 protein degradation. The levels of p21 were analyzed by immunoblotting

neddylation of p21 = assay: Immunoprecipitation of p21, neddylation (NEDD8‐HA); details: MB cells, in the presence of MG‐132 for 6 hours
Method: (§7) To observe ubiquitination or neddylation of p21, anti‐p21 antibody (Cell Signaling Technology) and Meg‐Beads‐Protein G (TOOLs) were added into total cell lysates collected from MB cells after transfected with plasmid overexpressing ubiquitin‐hemagglutinin (HA; Addgene, Cambridge, MA, USA) or NEDD8‐HA (Addgene) and treated with MG‐132 for 6 hours. Thereafter, immunoprecipitates were analyzed by immunoblotting with anti‐HA antibody (Sigma).
(§8) Figure 6 IAP Antagonist LBW242 Attenuates p21‐Interacted cIAP1 Expression and Neddylation of p21. A, To examine the ubiquitination of p21, MB cells were transfected with the plasmid carrying ubiquitin (Ub)‐HA and then treated with LBW242 combined with MG‐132 for 6 h. Total cell lysates were used for immunoprecipitation of p21, and subsequently applied to immunoblotting for detection of Ub‐HA, cIAP1, and cIAP2. B, To detect the neddylation of p21, MB cells were transfected with the plasmid overexpressing NEDD8‐HA, treated with MG‐132 and LBW242, and then subjected to immunoprecipitation. C, To examine whether cIAP1 dominates neddylation of p21, MB cells were co‐transfected with cIAP1 siRNA and NEDD8‐HA overexpressed plasmid, treated with MG‐132 for 6 h, and then applied to immunoprecipitation. D, DAOY cells were treated with MG‐132 for 6 h, and stained by immunofluorescence with anti‐cIAP1, anti‐cIAP2, and anti‐p21 antibodies. […]

cIAP1 = assay: Immunoblotting of IAPs in MB cells, time course; details: 10 μmol/L, in 60 minutes, DAOY and D283MED
Description: as §3, §6

ubiquitination of p21 = assay: Immunoprecipitation of p21, ubiquitination (Ub‐HA); details: MB cells, in the presence of MG‐132 for 6 hours
Method: as §7, §8

p21 RNA = assay: RT‐PCR analysis of p21 RNA in MB cells; details: DAOY and D283MED
Description: Total RNA was extracted using trizole reagent (Easypure Total RNA Reagent) and converted into cDNA product using iScript cDNA Synthesis Kit (BIO‐RAD, Hercules, CA, USA). The cDNA product was mixed with PCR Master Mix reagent (Promega, Madison, WI, USA) and PCR primers, and then subjected to 1% agarose gel electrophoresis. The target gene expression was normalized by GAPDH. Primer sequences for p21 are 5′‐[…]‐3′ (forward) and 5′‐GGGCTTCCTCTTGGA‐GAAGAT‐3′ (reverse); primer sequences for cIAP1 are 5′‐[…]‐3′ (forward) and 5′‐[…]‐3′ (reverse); primer sequences for cIAP2 are 5′‐[…]‐3′ (forward) and 5′‐CAAGTAGATGAGGGTAA‐CTGGC‐3′ (reverse); primer sequences for GAPDH are 5′‐TGAAGGTCGGAGTCA‐ACGGATTTGGT‐3′ (forward) and 5′‐[…]‐3′ (reverse).

[11] = Homo sapiens, vincristine alone or with IAP inhibitor (10 μmol/L)
[12] = cisplatin 72 h, with or without siRNA transfection
[13] = cisplatin alone or with IAP inhibitor (10 μmol/L)

CN[C@@H](C)C(=O)N[C@H](C(=O)N1CCC[C@H]1c1nc(C(=O)c2ccc(F)cc2)cs1)C1CCCCC1 [LCL161]
inhibition at 30 µM ([1]; read-out: inhibition of proliferation activities): 50%
Apoptosis (%) (DAOY cells [2]): 17.2 ± 2.5%
effect on BJ cell proliferation [3]: only mildly slowed
protein levels of CDK1, CDK2, cyclin A and cyclin B1 [4]: decreased
Apoptosis (%) (D283MED cells [5]): 14.0 ± 0.4%
effect on HA‐h cell proliferation [6]: only mildly slowed

CC[C@]1(O)C[C@H]2CN(CCc3c([nH]c4ccccc34)[C@@](C(=O)OC)(c3cc4c(cc3OC)N(C=O)[C@H]3[C@@](O)(C(=O)OC)[C@H](OC(C)=O)[C@]5(CC)C=CCN6CC[C@]43[C@@H]65)C2)C1 [Vincristine]
IC50 (D283MED cells [7]; Homo sapiens, D283 Med, vincristine 72 h, with or without siRNA transfection): > 5 nM
IC50 (D283MED cells [7]; Homo sapiens, D283 Med, vincristine alone or with IAP inhibitor (10 μmol/L)): 5.7 ± 0.47 nM
G2/M (proportion of cells) (D283MED cells [8]): 21.20%
G2/M (proportion of cells) (DAOY cells [9]): 18.28%
Apoptosis (%) (DAOY cells [2]): 6.0 ± 2.1%
IC50 (DAOY cells [10]; Homo sapiens, vincristine 72 h, with or without siRNA transfection): 3.47 ± 0.28 nM
IC50 (DAOY cells [10]; [11]): 5.5 ± 0.61 nM
IC50 ([3]; Homo sapiens, chemotherapeutic agent alone or with IAP inhibitor (10 μmol/L)): > 5 nM
Apoptosis (%) (D283MED cells [5]): 34.4 ± 2.4%
IC50 [6, 11]: > 20 nM

N.N.[Cl][Pt][Cl] [Cisplatin, cisplatin]
IC50 (D283MED cells [7]; [12]): > 2500 nM
IC50 (D283MED cells [7]; [13]): 1200 ± 250 nM
G2/M (proportion of cells) (D283MED cells [8]): 19.10%
G2/M (proportion of cells) (DAOY cells [9]): 16.70%
Apoptosis (%) (DAOY cells [2]): 13.3 ± 2.4%
IC50 (DAOY cells [10]; [12]): 740 ± 60 nM
IC50 (DAOY cells [10]; [13]): 1800 ± 100 nM
IC50 [3, 13]: > 5000 nM
Apoptosis (%) (D283MED cells [5]): 55.3 ± 3.5%
IC50 [6, 13]: > 5000 nM

NS(=O)(=O)OC[C@@H]1C[C@@H](n2ccc3c(N[C@H]4CCc5ccccc54)ncnc32)C[C@@H]1O [MLN4924]
p21 protein expression (p21): accumulated in a time‐dependent manner

CC(C)C[C@@H](C=O)NC(=O)[C@H](CC(C)C)NC(=O)[C@H](CC(C)C)NC(=O)OCc1ccccc1 [MG‐132] (Cbz-Leu-Leu-Leu-aldehyde)
p21 protein expression (p21): accumulated in a time‐dependent manner

C[C@@H]1C[C@@H]([C@H](O)CC2CC(=O)NC(=O)C2)C(=O)[C@@H](C)C1 [cycloheximide]
p21 protein expression (p21): decreased p21 protein levels after 30 minutes

CN[C@@H](C)C(=O)N[C@H](C(=O)N1CC[C@H]2CCN(CCc3ccccc3)C[C@H]21)C1CCCCC1 [LBW242]
neddylation of p21 (neddylation of p21): reduced neddylation of p21
inhibition of proliferation activities [1]: 50%
p21 protein expression (p21): enhances p21 expression
Apoptosis (%) (DAOY cells [2]): 22.6 ± 1.2%
effect on BJ cell proliferation [3]: only mildly slowed
protein levels of CDK1, CDK2, cyclin A and cyclin B1 [4]: decreased
Apoptosis (%) (D283MED cells [5]): 20.1 ± 0.3%
cIAP1 protein expression (cIAP1): effectively inhibited cIAP1 rather than cIAP2 or XIAP expression
ubiquitination of p21 (ubiquitination of p21): no effect
effect on HA‐h cell proliferation [6]: only mildly slowed
p21 transcriptional (RNA) levels (p21 RNA): does not affect p21 RNA levels
